Assay results reported in publication PMC6757289, “Design and Characterization of SGK3-PROTAC1, an Isoform Specific SGK3 Kinase PROTAC Degrader” (ACS Chemical Biology, 2019).
Read-outs that look alike come from different tables or passages of the source.

Key:
Assay in all cases: kinase profiling panel
Format in all cases: biochemical
[1] = target: TTBK2 (Homo sapiens, UniProt Q6IQ55); settings: read-out: % Activity Remaining
Description: (§1) Protein kinase profiling against a Dundee panel of 140 protein kinases was undertaken at the International Centre for Protein Kinase Profiling. The result for each kinase was presented as a mean kinase activity of the reaction taken in triplicate relative to a control sample treated with DMSO. Assay conditions and abbreviations are available at http://www.kinase-screen.mrc.ac.uk.

[2] = target: T1, p38 gamma MAPK (Homo sapiens, UniProt P53778); settings: read-out: % Activity Remaining
T1 sequence (P53778 1-367): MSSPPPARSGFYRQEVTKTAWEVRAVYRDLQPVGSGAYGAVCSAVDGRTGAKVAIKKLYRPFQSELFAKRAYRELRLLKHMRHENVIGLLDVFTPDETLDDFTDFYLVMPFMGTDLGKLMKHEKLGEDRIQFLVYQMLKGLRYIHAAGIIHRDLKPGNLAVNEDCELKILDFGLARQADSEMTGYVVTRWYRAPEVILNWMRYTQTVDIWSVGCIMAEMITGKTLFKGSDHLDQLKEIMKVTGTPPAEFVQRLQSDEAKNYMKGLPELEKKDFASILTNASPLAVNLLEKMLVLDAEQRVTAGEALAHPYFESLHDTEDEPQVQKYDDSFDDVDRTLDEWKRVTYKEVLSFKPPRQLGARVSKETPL
Description: as §1

[3] = system: PHK; settings: 1 µM
Description: as §1

[4] = target: ERK2 (Homo sapiens, UniProt P28482); settings: read-out: % Activity Remaining
Description: as §1

[5] = target: IRAK1 (Homo sapiens, UniProt P51617); settings: read-out: % Activity Remaining
Description: as §1

[6] = target: CLK2 (Homo sapiens, UniProt P49760); settings: read-out: % Activity Remaining
Description: as §1

[7] = target: T2, BRSK2 (Homo sapiens, UniProt Q8IWQ3); settings: read-out: % Activity Remaining
T2 sequence (Q8IWQ3 1-736): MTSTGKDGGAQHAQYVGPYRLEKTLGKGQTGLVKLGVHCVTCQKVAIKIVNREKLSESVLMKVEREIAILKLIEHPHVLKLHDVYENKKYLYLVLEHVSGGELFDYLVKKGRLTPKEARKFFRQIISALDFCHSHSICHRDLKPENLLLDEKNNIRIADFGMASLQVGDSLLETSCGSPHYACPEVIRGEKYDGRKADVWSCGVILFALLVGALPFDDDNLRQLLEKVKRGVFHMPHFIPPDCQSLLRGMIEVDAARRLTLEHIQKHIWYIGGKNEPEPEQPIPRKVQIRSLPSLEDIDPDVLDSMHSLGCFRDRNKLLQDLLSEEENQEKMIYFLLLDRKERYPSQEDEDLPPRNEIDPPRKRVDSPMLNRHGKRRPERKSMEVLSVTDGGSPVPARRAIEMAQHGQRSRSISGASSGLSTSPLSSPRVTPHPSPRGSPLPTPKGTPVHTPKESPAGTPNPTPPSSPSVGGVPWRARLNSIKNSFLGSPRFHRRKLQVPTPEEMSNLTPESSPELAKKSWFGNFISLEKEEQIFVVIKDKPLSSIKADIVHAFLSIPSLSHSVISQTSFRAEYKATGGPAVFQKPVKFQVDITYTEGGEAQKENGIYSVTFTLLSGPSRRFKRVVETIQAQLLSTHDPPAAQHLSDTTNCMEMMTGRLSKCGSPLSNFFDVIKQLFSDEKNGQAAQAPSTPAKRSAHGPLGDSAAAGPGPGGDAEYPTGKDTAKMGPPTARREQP
Description: as §1

[8] = target: DYRK1A (Homo sapiens, UniProt Q13627); settings: read-out: % Activity Remaining
Description: as §1

[9] = target: T3, NUAK1 (Homo sapiens, UniProt O60285); settings: read-out: % Activity Remaining
T3 sequence (O60285 1-661): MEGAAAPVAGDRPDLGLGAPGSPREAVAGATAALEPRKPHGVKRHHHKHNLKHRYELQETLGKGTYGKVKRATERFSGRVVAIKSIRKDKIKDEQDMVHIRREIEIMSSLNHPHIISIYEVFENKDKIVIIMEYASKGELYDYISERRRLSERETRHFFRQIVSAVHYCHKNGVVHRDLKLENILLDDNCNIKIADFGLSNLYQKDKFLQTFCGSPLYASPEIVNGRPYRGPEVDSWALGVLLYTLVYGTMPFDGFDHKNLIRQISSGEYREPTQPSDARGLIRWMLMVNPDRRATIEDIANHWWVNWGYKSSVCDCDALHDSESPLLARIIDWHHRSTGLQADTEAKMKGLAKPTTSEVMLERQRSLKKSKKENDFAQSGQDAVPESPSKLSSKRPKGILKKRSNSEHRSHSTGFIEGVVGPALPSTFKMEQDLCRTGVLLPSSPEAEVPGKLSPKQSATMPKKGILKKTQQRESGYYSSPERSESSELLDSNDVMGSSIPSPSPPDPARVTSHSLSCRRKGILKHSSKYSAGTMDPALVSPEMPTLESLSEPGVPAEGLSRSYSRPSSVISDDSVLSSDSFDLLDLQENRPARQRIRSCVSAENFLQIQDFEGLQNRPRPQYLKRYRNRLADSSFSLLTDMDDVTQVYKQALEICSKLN
Description: as §1

[10] = target: SIK2 (Homo sapiens, UniProt Q9H0K1); settings: read-out: % Activity Remaining
Description: as §1

[11] = target: CK1 gamma 2 (Homo sapiens, UniProt P78368); settings: read-out: % Activity Remaining
Description: as §1

[12] = target: IRR (Homo sapiens, UniProt P14616); settings: read-out: % Activity Remaining
Description: as §1

IRAK1, sequence (P51617 whole entry): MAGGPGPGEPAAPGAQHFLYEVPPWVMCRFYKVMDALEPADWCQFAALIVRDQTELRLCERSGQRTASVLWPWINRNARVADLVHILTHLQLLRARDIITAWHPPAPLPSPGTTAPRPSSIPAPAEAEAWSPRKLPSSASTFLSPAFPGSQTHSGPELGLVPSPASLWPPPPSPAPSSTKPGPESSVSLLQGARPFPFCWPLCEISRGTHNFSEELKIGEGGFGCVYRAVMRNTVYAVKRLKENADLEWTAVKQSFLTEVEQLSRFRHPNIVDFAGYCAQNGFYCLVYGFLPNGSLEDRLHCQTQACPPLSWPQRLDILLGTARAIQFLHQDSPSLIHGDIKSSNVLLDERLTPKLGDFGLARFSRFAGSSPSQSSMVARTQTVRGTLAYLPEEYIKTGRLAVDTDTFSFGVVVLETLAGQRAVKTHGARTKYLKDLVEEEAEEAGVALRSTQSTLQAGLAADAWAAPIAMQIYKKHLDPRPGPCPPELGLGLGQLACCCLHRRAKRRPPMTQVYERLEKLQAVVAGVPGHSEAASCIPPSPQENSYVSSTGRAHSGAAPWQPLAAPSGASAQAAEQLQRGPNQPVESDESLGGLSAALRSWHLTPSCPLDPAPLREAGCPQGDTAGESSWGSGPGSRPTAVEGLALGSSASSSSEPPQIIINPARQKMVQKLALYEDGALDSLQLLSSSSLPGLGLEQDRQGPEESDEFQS
SIK2, sequence (Q9H0K1 whole entry): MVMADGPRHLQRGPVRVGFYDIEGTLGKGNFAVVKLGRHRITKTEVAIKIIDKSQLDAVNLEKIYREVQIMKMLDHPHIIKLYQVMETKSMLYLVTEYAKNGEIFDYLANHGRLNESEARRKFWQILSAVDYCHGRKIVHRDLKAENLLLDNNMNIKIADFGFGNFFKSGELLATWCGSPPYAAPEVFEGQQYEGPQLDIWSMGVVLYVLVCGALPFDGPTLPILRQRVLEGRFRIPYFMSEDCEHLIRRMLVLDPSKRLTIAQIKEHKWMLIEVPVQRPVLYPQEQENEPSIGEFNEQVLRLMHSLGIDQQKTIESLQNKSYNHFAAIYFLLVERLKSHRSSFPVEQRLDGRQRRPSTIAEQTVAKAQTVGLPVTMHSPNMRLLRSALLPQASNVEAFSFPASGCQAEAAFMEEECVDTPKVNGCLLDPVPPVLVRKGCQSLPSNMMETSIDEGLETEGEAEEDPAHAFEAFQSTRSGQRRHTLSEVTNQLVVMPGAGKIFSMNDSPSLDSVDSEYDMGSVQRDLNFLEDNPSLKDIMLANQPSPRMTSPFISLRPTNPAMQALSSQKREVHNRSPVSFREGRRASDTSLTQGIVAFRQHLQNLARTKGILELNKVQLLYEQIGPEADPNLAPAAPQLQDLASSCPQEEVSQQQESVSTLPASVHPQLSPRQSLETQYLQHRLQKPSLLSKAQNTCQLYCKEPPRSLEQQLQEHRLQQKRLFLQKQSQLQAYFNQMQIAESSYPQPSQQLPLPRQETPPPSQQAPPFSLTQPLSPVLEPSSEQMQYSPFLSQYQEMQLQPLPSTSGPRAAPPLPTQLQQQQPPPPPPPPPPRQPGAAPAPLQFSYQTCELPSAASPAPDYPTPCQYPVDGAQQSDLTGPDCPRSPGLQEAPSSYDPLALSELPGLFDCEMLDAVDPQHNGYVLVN
IRR, sequence (P14616 27-1297): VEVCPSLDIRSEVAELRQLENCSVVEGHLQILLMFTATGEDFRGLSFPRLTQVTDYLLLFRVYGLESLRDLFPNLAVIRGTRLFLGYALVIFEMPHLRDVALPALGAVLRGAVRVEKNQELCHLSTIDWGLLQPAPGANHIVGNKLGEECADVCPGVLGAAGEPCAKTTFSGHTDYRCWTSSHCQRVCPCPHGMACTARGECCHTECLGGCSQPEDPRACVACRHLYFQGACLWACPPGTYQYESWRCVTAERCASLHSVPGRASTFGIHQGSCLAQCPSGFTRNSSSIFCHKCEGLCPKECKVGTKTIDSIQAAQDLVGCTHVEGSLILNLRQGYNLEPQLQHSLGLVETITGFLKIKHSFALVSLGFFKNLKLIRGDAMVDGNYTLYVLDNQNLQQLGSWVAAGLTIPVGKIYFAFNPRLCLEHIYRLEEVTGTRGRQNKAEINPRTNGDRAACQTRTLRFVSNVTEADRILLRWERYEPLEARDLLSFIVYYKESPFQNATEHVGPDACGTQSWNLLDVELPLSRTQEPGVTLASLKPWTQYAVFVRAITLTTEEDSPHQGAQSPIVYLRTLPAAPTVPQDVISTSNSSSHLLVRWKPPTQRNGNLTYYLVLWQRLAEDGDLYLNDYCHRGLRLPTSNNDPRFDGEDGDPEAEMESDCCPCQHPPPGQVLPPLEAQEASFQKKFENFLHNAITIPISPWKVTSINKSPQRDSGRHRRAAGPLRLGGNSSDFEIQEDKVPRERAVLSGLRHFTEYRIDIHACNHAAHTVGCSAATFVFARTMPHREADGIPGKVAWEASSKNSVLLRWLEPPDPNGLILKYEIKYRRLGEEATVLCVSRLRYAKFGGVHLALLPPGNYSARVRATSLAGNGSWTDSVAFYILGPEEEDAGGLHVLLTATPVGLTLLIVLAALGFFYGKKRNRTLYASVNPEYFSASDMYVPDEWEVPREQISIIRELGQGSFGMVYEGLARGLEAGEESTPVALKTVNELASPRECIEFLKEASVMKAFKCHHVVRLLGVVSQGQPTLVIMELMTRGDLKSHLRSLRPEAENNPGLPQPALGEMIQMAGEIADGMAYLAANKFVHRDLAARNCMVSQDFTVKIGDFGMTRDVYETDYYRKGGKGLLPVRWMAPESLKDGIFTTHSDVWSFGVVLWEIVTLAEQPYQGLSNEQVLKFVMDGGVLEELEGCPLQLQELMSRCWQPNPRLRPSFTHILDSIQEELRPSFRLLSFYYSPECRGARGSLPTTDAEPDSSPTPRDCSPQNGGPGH
CK1 gamma 2, sequence (P78368 whole entry): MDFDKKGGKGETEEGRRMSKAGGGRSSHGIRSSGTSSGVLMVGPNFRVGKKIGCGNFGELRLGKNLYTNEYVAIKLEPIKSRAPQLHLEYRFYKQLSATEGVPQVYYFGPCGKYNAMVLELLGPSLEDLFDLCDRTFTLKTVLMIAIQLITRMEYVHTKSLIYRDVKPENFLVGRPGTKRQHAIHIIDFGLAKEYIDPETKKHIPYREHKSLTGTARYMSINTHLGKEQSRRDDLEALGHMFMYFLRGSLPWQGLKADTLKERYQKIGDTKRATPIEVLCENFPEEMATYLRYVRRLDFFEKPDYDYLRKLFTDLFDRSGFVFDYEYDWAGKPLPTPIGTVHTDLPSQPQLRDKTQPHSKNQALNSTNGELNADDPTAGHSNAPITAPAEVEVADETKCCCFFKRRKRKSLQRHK
ERK2, sequence (P28482 whole entry): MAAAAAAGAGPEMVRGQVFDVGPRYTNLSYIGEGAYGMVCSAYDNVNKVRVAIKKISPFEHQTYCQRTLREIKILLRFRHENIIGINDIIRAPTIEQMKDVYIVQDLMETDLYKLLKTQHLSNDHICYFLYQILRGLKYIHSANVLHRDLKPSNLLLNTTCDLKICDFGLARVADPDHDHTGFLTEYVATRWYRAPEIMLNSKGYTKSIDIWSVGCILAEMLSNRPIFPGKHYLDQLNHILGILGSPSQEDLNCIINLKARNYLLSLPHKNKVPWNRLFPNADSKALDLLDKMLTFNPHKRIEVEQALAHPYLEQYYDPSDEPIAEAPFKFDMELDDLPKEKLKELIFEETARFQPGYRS
CLK2, sequence (P49760 whole entry): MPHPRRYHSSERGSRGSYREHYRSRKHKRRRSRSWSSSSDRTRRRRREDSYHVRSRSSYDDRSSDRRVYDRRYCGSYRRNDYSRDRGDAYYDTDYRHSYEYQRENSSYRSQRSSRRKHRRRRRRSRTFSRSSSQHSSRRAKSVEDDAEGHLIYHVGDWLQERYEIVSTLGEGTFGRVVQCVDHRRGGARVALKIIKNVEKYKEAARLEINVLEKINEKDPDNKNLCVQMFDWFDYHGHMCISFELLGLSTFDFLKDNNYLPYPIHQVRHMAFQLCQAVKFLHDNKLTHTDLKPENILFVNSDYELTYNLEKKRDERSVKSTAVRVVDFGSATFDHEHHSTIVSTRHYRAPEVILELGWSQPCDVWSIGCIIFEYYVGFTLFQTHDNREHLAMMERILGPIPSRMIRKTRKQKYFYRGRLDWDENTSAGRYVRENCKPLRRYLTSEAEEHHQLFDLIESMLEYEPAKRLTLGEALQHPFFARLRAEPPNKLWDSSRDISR

| SMILES | remaining activity at 1 µM ([1]; 1 µM) | remaining activity at 1 µM ([2]; 1 µM) | % Activity Remaining [3] | remaining activity at 1 µM ([4]; 1 µM) | remaining activity at 1 µM ([5]; 1 µM) | remaining activity at 1 µM ([6]; 1 µM) | remaining activity at 1 µM ([7]; 1 µM) | remaining activity at 1 µM ([8]; 1 µM) | remaining activity at 1 µM ([9]; 1 µM) | remaining activity at 1 µM ([10]; 1 µM) | remaining activity at 1 µM ([11]; 1 µM) | remaining activity at 1 µM ([12]; 1 µM) | remaining activity at 1 µM [1] | remaining activity at 1 µM [2] | remaining activity at 1 µM [4] | remaining activity at 1 µM [5] | remaining activity at 1 µM [6] | remaining activity at 1 µM [7] | remaining activity at 1 µM [8] | remaining activity at 1 µM [9] | other results |
| --- | --- | --- | --- | --- | --- | --- | --- | --- | --- | --- | --- | --- | --- | --- | --- | --- | --- | --- | --- | --- | --- |
| Cc1ccc(F)c(S(=O)(=O)Nc2ccc(-c3nc(OC[C@H]4CN(CCCCCCOCCOCCOCC(=O)N[C@H](C(=O)N5C[C@H](O)C[C@H]5C(=O)NCc5ccc(-c6scnc6C)cc5)C(C)(C)C)CCO4)c4cn[nH]c4n3)cc2)c1 [SGK3-PROTAC1] | 94% | 107% | 113% | 104% | 98% | 104% | 97% | 105% | 98% | 95% | 101% | 103% | – | – | – | – | – | – | – | – | – |
| Cc1ccc(F)c(S(=O)(=O)Nc2ccc(-c3nc(OC[C@H]4CNCCO4)c4cn[nH]c4n3)cc2)c1 [308-R, reference compound] | – | – | 83% | – | – | – | – | – | – | – | – | – | 87% | 111% | 110% | 88% | 104% | 82% | 81% | 103% | remaining activity at 1 µM [10]: 55%; remaining activity at 1 µM [11]: 67%; remaining activity at 1 µM [12]: 106% |
| COc1ccc(Cl)c(S(=O)(=O)Nc2ccc(-c3nc(OC[C@H]4CNCCO4)c4c(C)n[nH]c4n3)cc2)c1 [290-R, reference compound] | – | – | 97% | – | – | – | – | – | – | – | – | – | 114% | 112% | 109% | 93% | 88% | 102% | 103% | 91% | remaining activity at 1 µM [10]: 91%; remaining activity at 1 µM [11]: 112%; remaining activity at 1 µM [12]: 96% |
| Cc1ccc(F)c(S(=O)(=O)Nc2ccc(-c3nc(OC[C@H]4CN(CCCCCCOCCOCCOCC(=O)N[C@H](C(=O)N5C[C@@H](O)C[C@H]5C(=O)NCc5ccc(-c6scnc6C)cc5)C(C)(C)C)CCO4)c4cn[nH]c4n3)cc2)c1 [cisSGK3-PROTAC1] | 90% | 127% | 122% | 95% | 105% | 85% | 101% | 99% | 90% | 94% | 106% | 90% | – | – | – | – | – | – | – | – | – |
